Results on 88 molecules are retold here after a melting point compilation (Tetko et al.; mined from patent text by program, amines drawn as free bases though some values may be those of a salt).

For `CC(=O)N(Cc1ccccc1)CC(CCN1CCC(O)(c2ccccc2)CC1)c1ccc(Cl)c(Cl)c1` (stereo not drawn), the melting point (usually the temperature of the solid-liquid transition) was 57 to 62 °C. For `CN1CCN(c2ccccc2C=C2NC(=O)N(c3ccc(Cl)cc3)C2=O)CC1` the value was 193 to 194 °C; for `CC(=O)Oc1ccc2c(c1)CCC1C2CCC2(C)C1CC(O)C2N(C)C` (stereo not drawn), 173 to 175 °C. For `COc1ccc(S(N)(=O)=O)cc1C(=O)Cl` the value was 148 to 150 °C. Take `Cc1cc(O)ccc1-c1cnc2[nH]c(=O)n(CC3CCCCC3)c2n1`: the melting point fell in the range of 212 to 214 °C.

In the case of `COC1(C(=O)CCc2ccc(-c3ccc(O)cc3)cc2)C=CC(Cl)=CC1N` (stereo not drawn), the melting point lay in the range of 145 to 150 °C. `CCCCn1nc(C(N)=O)cc1CC`: the melting point lay in the range of 60 to 61 °C.

For the molecule `CSc1nnc2c(=O)c3ccc(Cl)cc3ccn12`, the melting point was 254 to 255 °C. For `COC(=O)c1sc2ccc(NC(C)=O)cc2c1N` the value was 248 °C. Turning to `O=C(O)C=CCCCc1cccc2cncn12`, the melting point lay within 142 to 144 °C. For `O=C(O)c1ccc2c(c1)S(=O)(=O)c1ccccc1C2` the value was 229 to 248 °C; for `Clc1ncccc1-c1ncoc1-c1cccnc1Cl`, 157 to 158 °C; for `CCOC(=O)C(NC(=O)CNC(N)=O)C(=O)OCC`, 140 to 142 °C.

As to `CN1CCN(c2cccc(Nc3cc(NC(=O)Nc4c(Cl)cc(Cl)cc4Cl)ncn3)c2)CC1`, the melting point fell in the range of 138 to 142 °C. For `O=c1n(CC2CO2)c(=O)n(CC2CO2)n1CC1CO1` (stereo not drawn) the value was 93 to 94 °C; for `CC(C)n1nc(C#Cc2ccccc2)ccc1=O`, 75.5 to 77 °C; for `Cc1cc(-c2sc(N3CCN(Cc4ccc(C(=O)N5CCCCC5)cc4)C3=O)nc2C)[nH]n1`, 182 to 183 °C. Molecule `COc1ccc(C(C[N+](=O)[O-])SC(=S)N(C)C)cc1OC` (stereo not drawn) displayed a melting point of 108 to 110 °C. In the case of `OCCc1ncn(C(c2ccccc2)(c2ccccc2)c2ccccc2)n1` it was 127 to 129 °C.

`COc1cccc(N2CCN(C(=O)Oc3ccc(Oc4ccc(C(F)(F)F)cn4)cc3)CC2)c1`: the melting point was in the range of 109 to 111 °C.

Take `NC(=O)c1cc(CN2C(=O)C3(COc4cc5c(cc43)OCO5)c3ccccc32)oc1C(F)(F)F` (stereo not drawn): the melting point fell in the range of 172 to 174 °C. In the case of `CS(=O)(=O)Nc1cccc(Nc2nc(N3CCC(O)C3)c3nc[nH]c3n2)c1` (stereo not drawn) it was 243 to 248 °C.

The molecule `CN(C(=O)c1ccc(-c2ccccc2)cc1)c1ccccc1` returned a melting point of 99 to 102 °C.

The molecule `C=C(C)C(=O)OCCC(=O)Oc1ccc(-c2cc(OC(=O)C(=C)C)cc(-c3ccc(OC(=O)CCOC(=O)C(=C)C)cc3)c2)cc1` came in with a melting point of 88 °C.

For the molecule `CCOc1ccc(Nc2ncccc2NS(=O)(=O)c2ccc(OC)cc2)cc1`, the melting point lay within 144 to 146 °C. For `O=C(Nc1ccccc1F)c1c(O)ccn2c1nc1ccccc12` the value was 237 to 238 °C; for `COc1ccc(SSc2ccc(OC)cc2C(N)=O)c(C(N)=O)c1`, 188 to 189 °C.

The molecule `CNC1=C([N+](=O)[O-])C(=O)NC1=Cc1ccccc1` registered a melting point of 238 °C. For `Cc1ccc(Cn2ccc(CN3CCC(c4ccccc4)(c4ccccc4)CC3)n2)cc1C` the value was 139 to 140 °C; for `Cn1c(-c2ccccc2)cc2oc(=O)nc(-c3ccccc3)c2c1=O`, 178 to 179 °C. `O=C1N(C(c2ccccc2)c2ccccc2)c2ccccc2C12COc1cc3c(cc12)OCCCO3` (stereo not drawn) displayed a melting point of 165 to 168 °C.

Turning to `c1ccc(CC2CCN(Cc3nc4ccccc4[nH]3)CC2)cc1`, the melting point is 179 to 181 °C. `Cc1c(C)c2c(c(C)c1NC(=O)CC(C)(C)C)C(c1ccc(C(C)O)cc1)CO2` (stereo not drawn) returned a melting point of 144 to 145 °C. Turning to `COC(=O)c1ccc(-c2cccc(C(=O)OC)c2)cc1`, the melting point was 86 to 87 °C. For `O=C(CCl)Nc1ccc2c(c1NC(=O)c1cccc(F)c1)C(=O)c1ccccc1C2=O` the value was 197 to 198 °C; for `C[C@@H](Nc1ncnc2cc(OCCOS(C)(=O)=O)c([N+](=O)[O-])cc12)c1ccccc1`, 128 to 134 °C; for `Cc1ccncc1-c1cc2ccncc2c(N)n1`, 280 to 282 °C.

On to `Clc1nc(Cl)c2ncn(C3CCCCC3)c2n1`, for which the melting point lay within 116 to 121 °C. In turn, `CN1C(=O)C(c2ccc(OC(F)F)cc2)(c2cccc(C3CC(=O)C3(C)C)c2)N=C1N` (stereo not drawn) registered a melting point of 172 to 174 °C. For `CCn1cc(C(=O)O)c(=O)c2ccc(F)c(C)c21` the value was 245 to 246 °C.

Take `CC(C)n1nc(-c2sc(NC(=O)c3ccc(C(F)(F)F)cc3)nc2-c2ccccc2)ccc1=O`: the melting point lay in the range of 162 to 167 °C. In the case of `CCC(C)(C)C1=C(OC(C)=O)C(=O)c2ccccc2C1=O` it was 53 °C.

Take `O=C(O)c1ccc(C(=O)N2Cc3ccccc3Cc3ccccc32)cc1`: the melting point lay in the range of 220 to 225 °C. `COc1ccc(-c2[nH]nc(C(=O)Oc3ccccc3)c2N)cc1` showed a melting point of 286 to 291 °C. In the case of `COc1ccc(C(O)(c2ccc(C(C)C)cc2)C(C)C)c(OC)c1` (stereo not drawn) it was 80 to 81 °C; in that of `CC1CC(=O)NN=C1c1ccc(NC(=NC#N)NCc2ccccn2)cc1` (stereo not drawn), 212 to 214 °C; in that of `COc1cccc(OC)c1Cl`, 69 to 71 °C.

With `NC[C@H]1C=Cc2cc(F)cc(-c3c(Cl)cccc3Cl)c2O1`, the melting point lay within 153 to 155 °C. In the case of `CCOC(=O)C(C)(C)Oc1ccc(-c2ccc(CCNC(=O)c3cccc(C)c3)cc2)cc1` it was below 20 °C.

Turning to `O=C(CCCCCCCCC(=O)OC1CCN(O)CC1)OC1CCN(O)CC1`, the melting point was in the range of 133 to 135 °C.

With `CCOC(=O)C1=C(C)NC(CSCO)=C(C(=O)OCC)C1c1cccc([N+](=O)[O-])c1` (stereo not drawn), the melting point lay within 113 to 114 °C. Turning to `CCc1cc(C(=O)O)c(C)o1`, the melting point is 97 to 99 °C. Regarding `CC(=O)n1nc(C(N)=O)c2ccccc21`, the melting point is 165 to 171 °C. Consider `CCC(Oc1ccc(F)cc1F)C(=O)OC1CC(O)C=C2C=CC(C)C(CCC3CC(O)CC(=O)O3)C21` (mixture of isomers), for which the melting point is 153 to 155 °C.

`CCCCCCC(C)(C)c1ccc(C2=CCCN(C)C2)c(O)c1`: the melting point was 126 to 127 °C. For `CCC(C(=O)c1ccc(Cl)cc1)n1ncn(-c2ccc(N3CCN(C(C)=O)CC3)cc2)c1=O` (stereo not drawn) the value was 125 °C. For `CC1(O)CC(=O)OC(CCc2ccc(OCc3ccc(F)cc3)cc2)C1` (stereo not drawn) the value was 144 °C; for `CCOC(=O)c1ncn(Cc2ccccc2)c1OC`, 127 to 128 °C. Take `O=P(O)(O)CCCCCCCCC(F)(F)C(F)(F)C(F)(F)C(F)(F)F`: the melting point was in the range of 87 to 89 °C. In the case of `Cc1c([N+](=O)[O-])ccc2[nH]ccc12` it was 179 to 180 °C; in that of `CC1CN(Cc2ccccc2)CC(NC(=O)c2n[nH]c3ccccc23)CN1C` (stereo not drawn), 162 to 163 °C. Molecule `O=Cc1nn(-c2ccc(F)cc2)c2c1CCC2` showed a melting point of 123 to 125 °C. Consider `CCC(CC)(CC(=O)Nc1cccc(OCc2ccc3ccc(C)cc3n2)c1)C(=O)O`, for which the melting point lay in the range of 75 to 76 °C.

Turning to `Cc1nc(Cc2ccccc2N)n[nH]1`, the melting point was 143 to 145 °C.

On to `O=C(NCCc1ccccc1)c1ccccn1`, for which the melting point is 58 to 59 °C.

Molecule `N=c1n(Cc2ccc(Cl)cc2)c2ccc(Cl)cc2n1Cc1ccc(Cl)cc1` showed a melting point of 175 to 177 °C.

Molecule `O=C(O)CCCOc1cccc2c1Cc1sc(SCC(c3ccccc3)c3ccccc3)nc1-2` yielded a melting point of 137 to 138 °C. In the case of `CC(C)(C)C(=O)Nc1ccc(-c2nc3n(c2-c2ccc(NC(=O)C(C)(C)C)cc2)CCS3)cc1` it was 210 to 215 °C; in that of `COC(=O)Cc1ccccc1Oc1cccc(O)c1`, 115 to 116 °C; in that of `CCOC(=O)Cc1cc(Br)c(C(=O)c2ccc(Cl)cc2)n1C`, 118 to 120 °C. For `CNc1cc(NS(=O)(=O)c2ccc(N)cc2)cc(C)n1` the value was 173 to 175 °C; for `CCn1ncc2c3ncn(CCC(C)C)c(=O)c3cnc21`, 165 to 167 °C; for `COc1cc2oc(=O)c3c(c2cc1N)CCN(CC(C)=O)C3`, 178 to 180 °C. In the case of `CC(=O)Nc1cc2c(Nc3ccc(Sc4nccn4C)c(Cl)c3)c(C#N)cnc2cc1N1CCC(N2CCCC2)CC1` it was 243 to 255 °C; in that of `O=C(NCCCc1ccccc1)NCc1ccccn1`, 89 to 90 °C; in that of `CCOCc1nc2c(N)nc(C)cc2n1NC(C)C`, 139 to 141 °C. On to `COC(=O)C1(N(C)C(=O)Cc2c(C)cc(C)cc2C)CCN(OC)CC1`, for which the melting point fell in the range of 133 to 135 °C.

`Fc1ccc(Nc2ncnc3cnc(N4CCC(CCCC5CCNCC5)CC4)nc23)cc1Cl` had a melting point of 128 to 130 °C. In the case of `COc1ccc(CN(C)CCOc2ccc(NC(=O)c3cccc4c(=O)c5cccc(OC)c5[nH]c34)cc2)cc1OC` it was 184 °C.

Molecule `CCCc1c(C(C)C)nc(C(C)C)c(CO)c1-c1ccc(F)cc1` gave a melting point of 49 to 54 °C. As for `CNC(=C[N+](=O)[O-])NCc1cccnc1`, the melting point lay in the range of 159 to 160 °C. `CC(C)(C)OC(=O)NC1CCCCCC=CC2CC2(C(=O)NS(=O)(=O)C2CC2)NC(=O)C2CC(OC(=O)c3ccc4nccnc4c3)CN2C1=O` (stereo not drawn) yielded a melting point of 158 to 160 °C. Turning to `CCOC(=O)Cc1nc(-c2ccc(Cl)cc2)oc1-c1ccsc1`, the melting point was in the range of 127 to 128 °C. For `Cc1noc(C2CCCCC2=O)n1` (stereo not drawn) the value was 74 to 76 °C.

`Oc1nc(Cc2ccc(F)cc2F)ncc1F`: the melting point was 155 to 156 °C. Turning to `CC(=NNC(=O)c1ccc2n1Cc1ccccc1N(C(=O)c1ccc(C3CCCCC3)cc1)C2)N(C)C`, the melting point was in the range of 164 to 175 °C.

Consider `CCCCCCCCCCCCCCOc1ccc(C(=O)Cl)cc1OCCCCCCCCCCCCCC`, for which the melting point is 68 to 70 °C. In the case of `CC(C)(O)C1CCN(c2ccc(C#N)c3ccccc23)CC1` it was 133 to 134 °C.
